Common to all, as to format: cell-based
Test [1] has as its system Staphylococcus aureus MS353AO. In words: MIC, Staphylococcus aureus MS353AO. The text has this:
(§1) *Macrolide antibioticsresistant A group strain (clinical isolates of
(§2) erythromycin, oleandomycin and 16member-ring-macrolide-resistant strain)

Test [2] deals with Staphylococcus aureus ATCC 6538P. In words: MIC, Staphylococcus aureus ATCC 6538P. To be noted: ATCC6538P.
Test [3] relates to Staphylococcus aureus MS353. The test can be described thus: MIC, Staphylococcus aureus MS353.
The test system of test [4] is Staphylococcus aureus 0119. The test can be described thus: MIC, Staphylococcus aureus 0119.
Source text: as §1, §2

For test [5], the system named is Staphylococcus aureus 0127. The test can be described thus: MIC, Staphylococcus aureus 0127.
Source text: as §1, §2

The subject of test [6] is Streptococcus pyogenes 1022. In words: MIC, Streptococcus pyogenes 1022.
Test [7] relates to Streptococcus pyogenes N.Y.5. In words: MIC, Streptococcus pyogenes N.Y.5.
Test [8] has as its system Staphylococcus aureus 0116. The test can be described thus: MIC, Staphylococcus aureus 0116.
Source text: as §1, §2

Where [9] appears, read: Staphylococcus aureus 0119, macrolide-resistant A group strain, clinical isolate, read-out: MIC.
The mark [10] stands for this setting: Staphylococcus aureus 0116, macrolide-resistant A group strain, clinical isolate, read-out: MIC.
The mark [11] stands for this setting: Staphylococcus aureus 0127, macrolide-resistant A group strain, clinical isolate, read-out: MIC.

SMILES strings stand for the structures. ≈ marks a conversion by molar mass, not a printed value. Like-named read-outs stand apart in the source and are kept apart here.

The results in this text go back to patent US4415730A, “19-Deformyl-deoxy-desmycosin” (priority 1981, dated 1983).

For the molecule `CCC1OC(=O)CC(O)C(C)C(OC2OC(C)C(O)C(N(C)C)C2O)C(C)CC(C)C(=O)C=CC(C)=CC1COC1OC(C)CC(OC)C1OC` (stereo not shown) [Compound [1] R1 = OH, 19-deformyl-4"-deoxy-desmycosin], the MIC in test [1] (Staphylococcus aureus, MS353AO) is 25 µg/mL (≈ 34.3 µM); in test [2], 0.1 µg/mL (≈ 0.137 µM); in test [3], not above 0.05 µg/mL; in test [4] (setting [9]), 12.5 µg/mL (≈ 17.2 µM); in test [5] (Staphylococcus aureus, 0127), 6.3 µg/mL (≈ 8.65 µM); in test [6] (read-out: MIC), 25 µg/mL (≈ 34.3 µM). Further, the values for the MIC in test [7] and in test [8] (setting [10]) were not above 0.05 µg/mL and 3.1 µg/mL (≈ 4.26 µM), respectively.
As to `CC[C@H]1OC(=O)[C@H](C)[C@@H](O[C@H]2C[C@@](C)(OC)[C@@H](O)[C@H](C)O2)[C@H](C)[C@@H](O[C@@H]2O[C@H](C)C[C@H](N(C)C)[C@H]2O)[C@](C)(O)C[C@@H](C)C(=O)[C@H](C)[C@@H](O)[C@]1(C)O` [erythromycin], the MIC is more than 100 µg/mL in test [1] (Staphylococcus aureus MS353AO, macrolide-resistant A group strain, clinical isolate, read-out: MIC); not above 0.05 µg/mL in test [2]; 0.1 µg/mL (≈ 0.136 µM) in test [3]; more than 100 µg/mL in test [4] (Staphylococcus aureus, 0119); more than 100 µg/mL in test [5] (Staphylococcus aureus, 0127); more than 100 µg/mL in test [6]. The MIC was not above 0.05 µg/mL in test [7] and more than 100 µg/mL in test [8] (Staphylococcus aureus, 0116).
As for `CO[C@@H]1[C@@H](O[C@@H]2O[C@H](C)[C@@H](O[C@H]3C[C@@](C)(O)[C@@H](OC(=O)CC(C)C)[C@H](C)O3)[C@H](N(C)C)[C@H]2O)[C@@H](CC=O)C[C@@H](C)[C@@H](O)/C=C/C=C/C[C@@H](C)OC(=O)C[C@H]1OC(C)=O` [josamycin], the minimal inhibitory concentration (MIC) in test [1] (Staphylococcus aureus, MS353AO) was more than 100 µg/mL; in test [2], 0.4 µg/mL (≈ 0.483 µM); in test [3], 0.8 µg/mL (≈ 0.966 µM); in test [4] (setting [9]), more than 100 µg/mL; in test [5] (setting [11]), more than 100 µg/mL; in test [6] (read-out: MIC) it was more than 100 µg/mL. Moreover, the MIC was not above 0.05 µg/mL in test [7] and more than 100 µg/mL in test [8] (setting [10]).
With `CCC1OC(=O)CC(O)C(C)C(OC2OC(C)CC(N(C)C)C2O)C(C)CC(C)C(=O)C=CC(C)=CC1COC1OC(C)C(O)C(OC)C1OC` (stereo not shown) [Compound [1] R1 = H, 19-deformyl-4'-deoxy-desmycosin], the MIC is 0.8 µg/mL (≈ 1.1 µM) in test [1] (Staphylococcus aureus, MS353AO); not above 0.05 µg/mL in test [2]; not above 0.05 µg/mL in test [3]; more than 100 µg/mL in test [4] (setting [9]); more than 100 µg/mL in test [5] (setting [11]); more than 100 µg/mL in test [6]. Besides, the MIC in test [7] was not above 0.05 µg/mL; in test [8] (setting [10]), 0.8 µg/mL (≈ 1.1 µM).
Consider `CCC1OC(=O)CC(O)C(C)C(OC2OC(C)C(O)C(N(C)C)C2O)C(CC=O)CC(C)C(=O)/C=C/C(C)=C/C1COC1OC(C)C(O)C(OC)C1OC` (stereo not shown) [descomycin, 4'-demycarosyl tylosin], for which the MIC is more than 100 µg/mL in test [1] (Staphylococcus aureus, MS353AO); 0.8 µg/mL (≈ 1.04 µM) in test [2]; 0.8 µg/mL (≈ 1.04 µM) in test [3]; more than 100 µg/mL in test [4] (setting [9]); more than 100 µg/mL in test [5] (setting [11]); more than 100 µg/mL in test [6] (read-out: MIC). The minimal inhibitory concentration (MIC) in test [7] was not above 0.05 µg/mL; in test [8] (setting [10]), 3.1 µg/mL (≈ 4.02 µM).
